From US20020082254A1, “Compounds for treating disorders where a decreased level of plasma FFA is desired” (priority 2000, published 2002)

The compounds below were run against T1, Hormone-sensitive lipase (HSL) (Homo sapiens, UniProt Q05469) (assay: Hormone-sensitive lipase (HSL) inhibition assay, 3H-labeled triolein or MOME substrate). Conditions: read-out: HSL inhibition (IC50).
T1 sequence (Q05469 1-1076): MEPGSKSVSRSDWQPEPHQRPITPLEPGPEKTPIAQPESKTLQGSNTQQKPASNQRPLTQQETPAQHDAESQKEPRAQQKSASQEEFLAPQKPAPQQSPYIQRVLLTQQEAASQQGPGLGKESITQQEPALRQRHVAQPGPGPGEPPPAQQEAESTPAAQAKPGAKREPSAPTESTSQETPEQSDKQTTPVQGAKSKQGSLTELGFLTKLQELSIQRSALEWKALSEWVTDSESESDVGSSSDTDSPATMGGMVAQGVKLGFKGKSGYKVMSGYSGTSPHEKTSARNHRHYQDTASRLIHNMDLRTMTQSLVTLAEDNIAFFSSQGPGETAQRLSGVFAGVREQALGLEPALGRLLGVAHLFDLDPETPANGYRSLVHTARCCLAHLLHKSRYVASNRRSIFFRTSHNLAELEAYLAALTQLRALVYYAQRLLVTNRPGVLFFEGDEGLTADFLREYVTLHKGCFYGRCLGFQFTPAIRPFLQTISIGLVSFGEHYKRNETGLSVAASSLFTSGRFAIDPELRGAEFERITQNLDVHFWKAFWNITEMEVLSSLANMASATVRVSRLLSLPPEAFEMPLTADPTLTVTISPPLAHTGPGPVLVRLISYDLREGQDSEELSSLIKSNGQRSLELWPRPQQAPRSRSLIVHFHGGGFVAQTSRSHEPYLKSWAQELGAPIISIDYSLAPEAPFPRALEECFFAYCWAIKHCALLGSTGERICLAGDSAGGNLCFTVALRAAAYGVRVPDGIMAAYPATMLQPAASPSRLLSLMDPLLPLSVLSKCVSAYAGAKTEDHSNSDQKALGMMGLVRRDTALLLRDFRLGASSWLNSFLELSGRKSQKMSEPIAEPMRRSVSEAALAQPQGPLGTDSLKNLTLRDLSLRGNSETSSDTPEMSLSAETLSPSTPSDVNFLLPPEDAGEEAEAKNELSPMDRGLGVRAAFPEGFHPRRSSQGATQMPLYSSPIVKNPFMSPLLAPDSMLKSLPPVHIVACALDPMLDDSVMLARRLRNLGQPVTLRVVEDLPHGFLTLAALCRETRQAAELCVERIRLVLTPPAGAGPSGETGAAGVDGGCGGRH
Assay type: biochemical
Outline: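 HSL enzyme (0.12 mg/ml stock) preincubated with inhibitor in PED-BSA, then given sonicated PC:PI-emulsified ³H-triolein or ³H-MOME in 0.1 M potassium phosphate pH 7 with BSA. 30 min at 37 °C; released radiolabelled fatty acid extracted in methanol/chloroform/heptane at pH 10.5 and scintillation counted.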
In the case of CC(C)(C)OC(=O)Nc1ccc(OC(=O)NN2CCc3ccccc3C2)cc1 [Example 17, (3,4-Dihydro-1H-isoquinolin-2-yl)-carbamic Acid 4-tert-butoxycarbonylamino-phenyl Ester], the IC50 is reported as 3 nM.
O=C(NN1CCc2ccccc2C1)Oc1ccc(Cl)cc1 [Example 6, (3,4-Dihydro-1H-isoquinolin-2-yl)-carbamic acid 4-chloro-phenyl Ester] was tested, and the IC50 was 19 nM.
CC1Cc2ccccc2CN1NC(=O)Oc1ccc(Cl)cc1 (stereo not drawn) [Example 23, (3-Methyl-3,4-dihydro-1H-isoquinolin-2-yl)-carbamic Acid 4-chloro-phenyl Ester] gave an IC50 of 40 nM.
